According to patent US20220354834A1, “METHODS AND MATERIALS FOR TREATING NEUROTOXICITY” (Cavion, Inc., priority 2019, published 2022):

What was measured:
Type in all cases: in vivo, Wistar rat
[1] = tested on: sciatic nerves (BTZ-induced CIPN); assay: CIPN-reversal study: sciatic nerve conduction velocity; details: P > 0.05 ns
Protocol: (§1) Wistar female rats (n=52) (Envigo, Correzzano, Italy) at 10-11 weeks of age were utilized. The study was divided into 2 phases of 4 weeks each. […] Body weight was measured periodically during phase 1 from baseline (day 1) to day 28. At baseline and conclusion of phase 1 (day 28), nerve conduction velocity (NCV) was performed on caudal and sciatic nerves and Dynamic Aesthesiometer Test (DAT) measured mechanical threshold (MT) of the hind paw. […] Body weight was measured periodically from baseline (day 28) to day 56 (termination). NCV and MT were measured in all 4 groups at baseline and on day 35 and 56. […] At termination, sciatic nerves were obtained for β-tubulin polymerization and skin samples were procured for intraepidermal nerve fiber (IENF) density and histopathology.
NCV (meters/second) was obtained from caudal and sciatic nerves with an electromyography tool (Myto 2, ABN Neuro, Firenze, Italy). Caudal NCV was measured by placement of recording needle electrodes distally in the tail with stimulating needle electrodes 5 cm and 10 cm proximal to recording point. Peak latencies of potentials recorded at the 2 sites after nerve stimulation were determined and NCV was calculated. Sciatic NCV was determined by placement of needle recording electrodes near ankle bone and stimulating electrodes close to thigh. Peak latencies were recorded similar to caudal nerve and NCV was calculated. NCV was performed under standard conditions in a temperature-controlled facility (22±2° C.) and rats were under isoflurane anesthesia with monitoring of vital signs.

β-tubulin = β-tubulin polymerization assay in sciatic nerve; details: week 8
Protocol: as §1
(§2) At day 56, animals were euthanized by CO2 inhalation and tissue samples were procured from 4 rats per group. Right sciatic nerve was frozen in liquid nitrogen for β-tubulin polymerization assay and plantar glabrous skin samples were collected for IENF density.
Protein extracts from sciatic nerves were processed similar to the proteasome assay except for lysis buffer that contained freshly added protease and […] (10 mM sodium orthovanadate, 4 mM phenylmethylsulfonyl fluoride, 1% aprotinin and 20 mM sodium pyrophosphate). Protein extracts were centrifuged (14000 rpm for 10 minutes at 4° C.) to separate soluble (S) free tubulin fractions from polymerized (P) fractions. Supernatants were collected and pellets of polymerized tubulin were resuspended by sonication for 20 seconds in a volume of lysis buffer supplemented with 0.5% sodium deoxycholate (equivalent to S fraction). Protein aliquots (10 μg) were placed onto 13% SDS-PAGE and, after electrophoresis, were transferred to nitrocellulose filters. Immunoblotting analysis was performed using mouse anti-β-tubulin antibody. After incubation with primary antibody, membrane was washed and incubated with horseradish peroxidase conjugated to […] (Perkin Elmer Italia SPA, Monza, Italy). The ECL chemiluminescence system (Amersham GE Healthcare Europe GmbH, Milano, Italy) was used for detection. Band intensity was quantified with Gel Logic 100 Image System (Eastman Kodak, Rochester, N.Y., USA). Final mean values were obtained from triplicate experiments and data were expressed as percentage of P/P+S in treated rats compared to controls.

[2] = tested on: intraepidermal nerve fibers (BTZ-induced CIPN); assay: IENF density and histopathology of plantar glabrous skin; details: week 8
Protocol: as §1, §2
Plantar glabrous skin samples (5 mm) from hind paws were fixed in 2% PLP (paraformaldehyde-lysine-sodium periodate) for 24 hours at 4° C. and cryoprotected overnight. Samples were serially cut with a cryostat to yield 20 μm sections. Three sections from each footpad were randomly selected and immunostained with rabbit polyclonal anti-protein gene product 9.5 (PGP 9.5; GeneTex, Irvine, Calif., USA) in combination with biotinylated anti-rabbit IgG and Vector SG substrate kit peroxidase (Vector Laboratories, Burlingame, Calif.) using a free-floating protocol. A blinded observer counted total number of immune-positive IENF in each section under light microscopy at high magnification with a microscope video camera. Individual fibers were counted that crossed dermal-epidermal interface. Secondary branches within epidermis were excluded. Length of epidermis was measured to generate linear density of IENF/millimeter as described elsewhere (Canta et al., 2016 Neurobiol Aging 45:136-148).

[3] = BTZ+ CX-8998 3 mg/kg vs BTZ+ CX-8998 10 mg/kg
[4] = BTZ+ CX-8998 3 mg/kg vs BTZ+ CX-8998 30 mg/kg
[5] = BTZ+ CX-8998 10 mg/kg vs BTZ+ CX-8998 30 mg/kg
[6] = BTZ vs BTZ+ CX-8998 3 mg/kg, P > 0.05 ns
[7] = BTZ vs BTZ+ CX-8998 10 mg/kg, P > 0.05 ns
[8] = BTZ+ CX-8998 3 mg/kg vs BTZ+ CX-8998 10 mg/kg, P > 0.05 ns
[9] = CTRL vs BTZ+ CX-8998 3 mg/kg, P < 0.05 *
[10] = CTRL vs BTZ+ CX-8998 30 mg/kg, P > 0.05 ns

SMILES: CC(C)c1ccc(CC(=O)N[C@H](C)c2ccc(OCC(F)(F)F)cn2)cc1 [CX-8998, (R)-2-(4-Isopropylphenyl)-N-(1-(5-(2,2,2-Trifluoroethoxy)pyridin-2-yl)ethyl)acetamide]
- NCV OF SCIATIC NERVE (5 weeks), Difference in rank sum (Dunn's Multiple Comparison Test) [1, 3]: −4.083
- NCV OF SCIATIC NERVE (8 weeks), Difference in rank sum (Dunn's Multiple Comparison Test) [1, 3]: −9.136
- NCV OF SCIATIC NERVE (5 weeks), Difference in rank sum (Dunn's Multiple Comparison Test) [1, 4]: −1.417
- NCV OF SCIATIC NERVE (8 weeks), Difference in rank sum (Dunn's Multiple Comparison Test) [1, 4]: −9.652
- NCV OF SCIATIC NERVE (5 weeks), Difference in rank sum (Dunn's Multiple Comparison Test) [1, 5]: 2.667
- NCV OF SCIATIC NERVE (8 weeks), Difference in rank sum (Dunn's Multiple Comparison Test) [1, 5]: −0.5152
- NCV OF SCIATIC NERVE (5 weeks), Difference in rank sum (Dunn's Multiple Comparison Test) ([1]; CTRL vs BTZ+ CX-8998 3 mg/kg): 8.917
- NCV OF SCIATIC NERVE (8 weeks), Difference in rank sum (Dunn's Multiple Comparison Test) ([1]; CTRL vs BTZ+ CX-8998 3 mg/kg): 11.98
- NCV OF SCIATIC NERVE (5 weeks), Difference in rank sum (Dunn's Multiple Comparison Test) ([1]; CTRL vs BTZ+ CX-8998 10 mg/kg): 4.833
- NCV OF SCIATIC NERVE (8 weeks), Difference in rank sum (Dunn's Multiple Comparison Test) ([1]; CTRL vs BTZ+ CX-8998 10 mg/kg): 2.848
- NCV OF SCIATIC NERVE (5 weeks), Difference in rank sum (Dunn's Multiple Comparison Test) ([1]; CTRL vs BTZ+ CX-8998 30 mg/kg): 7.500
- NCV OF SCIATIC NERVE (8 weeks), Difference in rank sum (Dunn's Multiple Comparison Test) ([1]; CTRL vs BTZ+ CX-8998 30 mg/kg): 2.333
- TUBULIN POLYMERIZATION, Difference in rank sum (Dunn's Multiple Comparison Test) (β-tubulin; [6]): −4.000
- TUBULIN POLYMERIZATION, Difference in rank sum (Dunn's Multiple Comparison Test) (β-tubulin; [7]): −4.000
- TUBULIN POLYMERIZATION, Difference in rank sum (Dunn's Multiple Comparison Test) (β-tubulin; BTZ vs BTZ+ CX-8998 30 mg/kg, P > 0.05 ns): 15.00
- TUBULIN POLYMERIZATION, Difference in rank sum (Dunn's Multiple Comparison Test) (β-tubulin; [8]): 0.000
- TUBULIN POLYMERIZATION, Difference in rank sum (Dunn's Multiple Comparison Test) (β-tubulin; BTZ+ CX-8998 3 mg/kg vs BTZ+ CX-8998 30 mg/kg, P < 0.05 *): 19.00
- TUBULIN POLYMERIZATION, Difference in rank sum (Dunn's Multiple Comparison Test) (β-tubulin; BTZ+ CX-8998 10 mg/kg vs BTZ+ CX-8998 30 mg/kg, P < 0.05 *): 19.00
- TUBULIN POLYMERIZATION, Difference in rank sum (Dunn's Multiple Comparison Test) (β-tubulin; [9]): −15.64
- TUBULIN POLYMERIZATION, Difference in rank sum (Dunn's Multiple Comparison Test) (β-tubulin; CTRL vs BTZ+ CX-8998 10 mg/kg, P < 0.05 *): −15.46
- TUBULIN POLYMERIZATION, Difference in rank sum (Dunn's Multiple Comparison Test) (β-tubulin; [10]): 0.2576
- IENF DENSITY, Difference in rank sum (Dunn's Multiple Comparison Test) [2, 6]: −10.93
- IENF DENSITY, Difference in rank sum (Dunn's Multiple Comparison Test) [2, 7]: −0.04167
- IENF DENSITY, Difference in rank sum (Dunn's Multiple Comparison Test) ([2]; BTZ vs BTZ+ CX-8998 30 mg/kg, P < 0.05 *): −20.54
- IENF DENSITY, Difference in rank sum (Dunn's Multiple Comparison Test) [2, 8]: 10.89
- IENF DENSITY, Difference in rank sum (Dunn's Multiple Comparison Test) ([2]; BTZ+ CX-8998 3 mg/kg vs BTZ+ CX-8998 30 mg/kg, P > 0.05 ns): −9.611
- IENF DENSITY, Difference in rank sum (Dunn's Multiple Comparison Test) ([2]; BTZ+ CX-8998 10 mg/kg vs BTZ+ CX-8998 30 mg/kg, P < 0.01 **): −20.50
- IENF DENSITY, Difference in rank sum (Dunn's Multiple Comparison Test) [2, 9]: 18.06
- IENF DENSITY, Difference in rank sum (Dunn's Multiple Comparison Test) ([2]; CTRL vs BTZ+ CX-8998 10 mg/kg, P < 0.001 ***): 28.94
- IENF DENSITY, Difference in rank sum (Dunn's Multiple Comparison Test) [2, 10]: 8.444
